{
  "source": "PubChem BioAssay (NCI)",
  "note": "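Results reflect a 48-hour exposure of cells in 96-well plates to compound at five concentrations. GI50 is the concentration that inhibits growth by half. The concentration for full growth arrest is given as TGI.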",
  "data": [
    {"tested_on": "LXFL 529 NSCLC", "assay": "NCI tumour cell line growth inhibition, 48 h", "units": {"TGI": "µM"}, "values": [
      {"smiles": "CCOC(=O)NC(=O)c1cn(C2CCCCC2)c(=O)[nH]c1=O", "TGI": "> 100"}
    ]},
    {"tested_on": "DLD-1 colon", "assay": "NCI tumour cell line growth inhibition, 48 h", "units": {"TGI": "µM", "GI50": "µM"}, "values": [
      {"smiles": "Nc1ccccc1C(=O)/C=C/c1c(O)ccc2ccccc12", "TGI": "> 100"},
      {"smiles": "CCC1CN2CCc3cc(OC)c(OC)cc3C2CC1CC1c2cc(OC)c(OC)cc2CCN1C(=O)C1CCCN1", "note": "(stereo not given)", "TGI": 77.4},
      {"smiles": "CC(C(=O)c1ccc(Cl)cc1)/C(=N/NC(=O)NN)C(=O)Nc1cccc(C(F)(F)F)c1", "note": "(stereo not given)", "TGI": "> 100"},
      {"smiles": "CCOP(=O)(OCC)C(C(=O)OC)C(=O)C(=O)Nc1ccc(Cl)cc1Cl", "note": "(stereo not given)", "TGI": "> 100"},
      {"smiles": "CC(C)=C1CCC(CN(C)C)C1=O", "note": "(stereo not given)", "TGI": 36.8},
      {"smiles": "COc1cccc(/C=N/[N-]C(=O)c2ccncc2)c1[O-].COc1cccc(/C=N/[N-]C(=O)c2ccncc2)c1[O-].[O]=[U](=[O])([OH2+])[OH2+]", "GI50": 4.19, "TGI": "> 100"},
      {"smiles": "ClC(Cl)=C1C(=C(Cl)Cl)C(Cl)(Cl)C1(Cl)Cl", "TGI": 3.3},
      {"smiles": "CC(C)(C)c1ccc2c(c1)S(=O)(=O)Nc1ccc(Cl)cc1NS(=O)(=O)c1cc(C(C)(C)C)ccc1OCCOCCOCCO2", "TGI": "> 100"},
      {"smiles": "CO[C@H]1Nc2c(ccc(C)c2O)C(=O)N2C=C(/C=C/C(N)=O)C[C@@H]12", "TGI": "> 47.6"},
      {"smiles": "CCNC(=O)/C(=C/c1ccc(OC)cc1)c1cc(OC)c(OC)c(OC)c1", "TGI": "> 100"},
      {"smiles": "N#CC(=Nc1ccccc1N(C(=O)c1ccccc1)C(=O)c1ccccc1)c1ccccc1", "TGI": "> 100"},
      {"smiles": "COc1c(C)n(CCO)ccc1=O", "TGI": "> 100"},
      {"smiles": "COC(=O)C(=O)C(C(C)=O)C(=O)NCc1ccc(OC)c(OC)c1", "note": "(stereo not given)", "TGI": "> 100"},
      {"smiles": "Nc1c(-c2ccccc2-c2c(N)[n+]([O-])c3ccccc3[n+]2[O-])[n+]([O-])c2ccccc2[n+]1[O-]", "TGI": "> 100"},
      {"smiles": "O=C(CC(=O)C1CCOC1=O)C(=O)Nc1cccc(Cl)c1", "note": "(stereo not given)", "TGI": "> 100"},
      {"smiles": "CCN1c2ccccc2-c2c3c1cc(C)cc3c1ccccc1[n+]2CC", "TGI": 17.8},
      {"smiles": "Cc1cccc(C2=C/C(=C(\\SS/C(C(=O)c3ccc(OCC(=O)O)c(Cl)c3Cl)=C3\\C=C(c4cccc(C)c4)SS3)C(=O)c3ccc(OCC(=O)O)c(Cl)c3Cl)SS2)c1", "TGI": "> 100"},
      {"smiles": "CC(=O)N1CCN(c2ccc(OCC3COC(Cn4ccnc4)(c4ccc(Cl)cc4Cl)O3)cc2)CC1", "note": "(stereo not given)", "TGI": "> 100"},
      {"smiles": "CC1=C(C#N)C(=O)CC(c2ccc(Cl)cc2)N(C)N1", "note": "(stereo not given)", "TGI": "> 100"},
      {"smiles": "Nc1nc(-c2ccc(Cl)c([N+](=O)[O-])c2)cs1", "TGI": "> 100"},
      {"smiles": "COc1cc(/C=C2\\[C@H]3c4c(c(OC)c(C)c(OC)c4OC)CC(C(=O)N2Cc2ccccc2)N3C)c(OC)c(C)c1OC", "TGI": "> 100"},
      {"smiles": "CN(C)C(=S)SSC(=S)N(C)C", "TGI": "> 64"},
      {"smiles": "O=C(N/C(=C\\c1ccc([N+](=O)[O-])cc1)c1nc2ccccc2[nH]1)c1ccccc1", "TGI": "> 100"},
      {"smiles": "COC(=O)/C([Se]c1c(C)cc(C)cc1C)=C(/[Se]c1c(C)cc(C)cc1C)C(=O)OC", "TGI": "> 100"},
      {"smiles": "NC(=O)C(=O)CC(=O)c1ccccc1NC1=CC(=O)C(=O)c2ccccc21", "TGI": "> 100"},
      {"smiles": "Cc1cc2c(c(C(N)=O)c1C)-c1ccccc1C2=O", "TGI": "> 100"},
      {"smiles": "Cc1ccccc1C1=[N+]([O-])c2ccc(Cl)cc2C1=O", "TGI": 19.6},
      {"smiles": "Cc1[nH]c2ccccc2c1C1Cc2ccccc2N1C(=O)C#Cc1ccc([N+](=O)[O-])cc1", "note": "(stereo not given)", "TGI": "> 100"},
      {"smiles": "CCOC(=O)NC(=O)c1cn(C2CCCCC2)c(=O)[nH]c1=O", "TGI": "> 100"}
    ]},
    {"tested_on": "SN12K1 renal", "assay": "NCI tumour cell line growth inhibition, 48 h", "units": {"TGI": "µM"}, "values": [
      {"smiles": "CO[C@H]1Nc2c(ccc(C)c2O)C(=O)N2C=C(/C=C/C(N)=O)C[C@@H]12", "TGI": 0.0473}
    ]},
    {"tested_on": "DMS 273 small cell lung", "assay": "NCI tumour cell line growth inhibition, 48 h", "units": {"TGI": "µM", "GI50": "µM"}, "values": [
      {"smiles": "Nc1ccccc1C(=O)/C=C/c1c(O)ccc2ccccc12", "TGI": "> 100"},
      {"smiles": "CCC1CN2CCc3cc(OC)c(OC)cc3C2CC1CC1c2cc(OC)c(OC)cc2CCN1C(=O)C1CCCN1", "note": "(stereo not given)", "TGI": "> 100"},
      {"smiles": "CC(C(=O)c1ccc(Cl)cc1)/C(=N/NC(=O)NN)C(=O)Nc1cccc(C(F)(F)F)c1", "note": "(stereo not given)", "TGI": "> 100"},
      {"smiles": "CCOP(=O)(OCC)C(C(=O)OC)C(=O)C(=O)Nc1ccc(Cl)cc1Cl", "note": "(stereo not given)", "TGI": "> 100"},
      {"smiles": "COc1cccc(/C=N/[N-]C(=O)c2ccncc2)c1[O-].COc1cccc(/C=N/[N-]C(=O)c2ccncc2)c1[O-].[O]=[U](=[O])([OH2+])[OH2+]", "GI50": 4.2, "TGI": "> 56.6"},
      {"smiles": "ClC(Cl)=C1C(=C(Cl)Cl)C(Cl)(Cl)C1(Cl)Cl", "TGI": 9.87},
      {"smiles": "CC(C)(C)c1ccc2c(c1)S(=O)(=O)Nc1ccc(Cl)cc1NS(=O)(=O)c1cc(C(C)(C)C)ccc1OCCOCCOCCO2", "TGI": "> 100"},
      {"smiles": "CO[C@H]1Nc2c(ccc(C)c2O)C(=O)N2C=C(/C=C/C(N)=O)C[C@@H]12", "TGI": 0.118},
      {"smiles": "CCNC(=O)/C(=C/c1ccc(OC)cc1)c1cc(OC)c(OC)c(OC)c1", "TGI": "> 100"},
      {"smiles": "N#CC(=Nc1ccccc1N(C(=O)c1ccccc1)C(=O)c1ccccc1)c1ccccc1", "TGI": "> 100"},
      {"smiles": "COc1c(C)n(CCO)ccc1=O", "TGI": "> 100"},
      {"smiles": "COC(=O)C(=O)C(C(C)=O)C(=O)NCc1ccc(OC)c(OC)c1", "note": "(stereo not given)", "TGI": "> 100"},
      {"smiles": "Nc1c(-c2ccccc2-c2c(N)[n+]([O-])c3ccccc3[n+]2[O-])[n+]([O-])c2ccccc2[n+]1[O-]", "TGI": 38.7},
      {"smiles": "CCOC(=O)NC(=O)c1cn(C(CC)COC(=O)NCCCCCCNC(=O)OCC(CC)n2cc(C(=O)NC(=O)OCC)c(=O)[nH]c2=O)c(=O)[nH]c1=O", "note": "(stereo not given)", "TGI": "> 100"},
      {"smiles": "O=C(CC(=O)C1CCOC1=O)C(=O)Nc1cccc(Cl)c1", "note": "(stereo not given)", "TGI": "> 100"},
      {"smiles": "CCN1c2ccccc2-c2c3c1cc(C)cc3c1ccccc1[n+]2CC", "TGI": 1.58},
      {"smiles": "Cc1cccc(C2=C/C(=C(\\SS/C(C(=O)c3ccc(OCC(=O)O)c(Cl)c3Cl)=C3\\C=C(c4cccc(C)c4)SS3)C(=O)c3ccc(OCC(=O)O)c(Cl)c3Cl)SS2)c1", "TGI": 83.6},
      {"smiles": "CC(=O)N1CCN(c2ccc(OCC3COC(Cn4ccnc4)(c4ccc(Cl)cc4Cl)O3)cc2)CC1", "note": "(stereo not given)", "TGI": 61.4},
      {"smiles": "Nc1nc(-c2ccc(Cl)c([N+](=O)[O-])c2)cs1", "TGI": "> 100"},
      {"smiles": "COc1cc(/C=C2\\[C@H]3c4c(c(OC)c(C)c(OC)c4OC)CC(C(=O)N2Cc2ccccc2)N3C)c(OC)c(C)c1OC", "TGI": 38.6},
      {"smiles": "CN(C)C(=S)SSC(=S)N(C)C", "TGI": "> 100"},
      {"smiles": "COC(=O)/C([Se]c1c(C)cc(C)cc1C)=C(/[Se]c1c(C)cc(C)cc1C)C(=O)OC", "TGI": "> 100"},
      {"smiles": "NC(=O)C(=O)CC(=O)c1ccccc1NC1=CC(=O)C(=O)c2ccccc21", "TGI": "> 100"},
      {"smiles": "Cc1cc2c(c(C(N)=O)c1C)-c1ccccc1C2=O", "TGI": "> 100"},
      {"smiles": "COC(=O)/C(=N/O)C(C(=O)C=C(C)C)C(=O)C(=O)Nc1nc2ccc([N+](=O)[O-])cc2s1", "note": "(stereo not given)", "TGI": "> 100"},
      {"smiles": "CCOC(=O)NC(=O)c1cn(C2CCCCC2)c(=O)[nH]c1=O", "TGI": "> 100"},
      {"smiles": "Cn1c(=O)nc2n(-c3cc(C(F)(F)F)cc(C(F)(F)F)c3)c3ccccc3nc-2c1=O", "TGI": "> 100"}
    ]}
  ]
}
